Measured values as given in ChEMBL document CHEMBL1123940, “Carbamate ester derivatives as potential prodrugs of the presynaptic dopamine autoreceptor agonist (-)-3-(3-hydroxyphenyl)-N-propylpiperidine” (J Med Chem, 1987).

Biological target: Acetylcholinesterase (Homo sapiens, UniProt P22303)
Assay: Inhibitory activity against acetylcholinesterase in human blood
Type: tissue-based

Sequence of Acetylcholinesterase (P22303 whole entry): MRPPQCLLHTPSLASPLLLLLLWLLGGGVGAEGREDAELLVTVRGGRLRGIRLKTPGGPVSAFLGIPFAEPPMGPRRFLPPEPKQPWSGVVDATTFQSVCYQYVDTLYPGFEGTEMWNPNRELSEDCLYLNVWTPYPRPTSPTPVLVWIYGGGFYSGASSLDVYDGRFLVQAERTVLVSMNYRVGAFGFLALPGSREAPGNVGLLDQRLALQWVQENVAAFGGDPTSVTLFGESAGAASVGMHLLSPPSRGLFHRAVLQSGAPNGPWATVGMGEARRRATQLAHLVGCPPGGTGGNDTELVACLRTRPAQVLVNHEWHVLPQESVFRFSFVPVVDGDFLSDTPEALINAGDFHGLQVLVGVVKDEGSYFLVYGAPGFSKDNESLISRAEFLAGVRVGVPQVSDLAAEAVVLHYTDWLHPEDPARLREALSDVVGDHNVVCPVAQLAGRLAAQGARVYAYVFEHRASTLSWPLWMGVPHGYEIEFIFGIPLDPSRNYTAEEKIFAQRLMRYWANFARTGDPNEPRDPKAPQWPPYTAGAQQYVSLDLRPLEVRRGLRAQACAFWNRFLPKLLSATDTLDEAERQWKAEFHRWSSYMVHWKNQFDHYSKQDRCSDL

**Q.** How did the IC50 turn out when `CCCN1CCCC(c2cccc(OC(=O)NC(C)C)c2)C1` (stereo unspecified) was run?
**A.** The IC50 was 10 µM.
